Among the data in US10239832B2, “N-(1-hydroxy-3-(pyrrolidinyl)propan-2-yl)pyrrolidine-3-carboxamide derivatives as glucosylceramide synthase inhibitors” (BIOMARIN PHARMACEUTICAL INC., priority 2013, dated 2019) are IC50 values, retold here.

By IC50 is commonly meant the midpoint of a concentration-inhibition curve.

This experiment addresses T1, GCS (Canis lupus familiaris, UniProt A0A8I3MXG6).
T1 construct: endogenous in cells; host or cells: MDCK (Madin-Darby canine kidney) cells, whole-cell lysate
T1 sequence (A0A8I3MXG6 1-394): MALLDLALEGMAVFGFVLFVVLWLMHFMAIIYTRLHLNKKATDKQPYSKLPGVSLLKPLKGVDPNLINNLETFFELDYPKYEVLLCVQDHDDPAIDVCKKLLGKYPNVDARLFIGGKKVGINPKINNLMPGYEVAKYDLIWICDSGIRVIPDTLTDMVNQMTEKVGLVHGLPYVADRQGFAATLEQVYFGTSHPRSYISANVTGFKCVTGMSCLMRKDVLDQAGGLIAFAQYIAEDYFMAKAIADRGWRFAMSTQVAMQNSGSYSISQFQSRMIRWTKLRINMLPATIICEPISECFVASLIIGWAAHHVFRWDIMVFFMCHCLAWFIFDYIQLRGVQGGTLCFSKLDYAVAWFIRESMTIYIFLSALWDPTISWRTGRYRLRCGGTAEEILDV
Put plainly: GCS enzymatic assay (MDCK cell lysate, NBD-ceramide to glucosylceramide, LC/MS). Conditions: Table 2; class symbols A, B, C; the table does not say which of the assays; read-out: Data Range (IC50 values). The experiment is classed as biochemical, canine. The essentials:
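Dog MDCK cell lysate served as enzyme source, with NBD-ceramide turned over to glucosylceramide and 0.1% DMSO as mock control. The reaction was stopped with acetonitrile. Both lipids were quantified by LC/MS/MS in ESI positive MRM mode against a tolbutamide internal standard, giving IC50 or percent inhibition.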

As for `O=C(N[C@H](CN1CCC1)[C@H](O)c1ccc(OC2CC2)cc1)[C@@H]1CCN(c2ccc3cc(F)ccc3c2)C1` [Compound 159, (R)-N-((1R,2R)-3-(azetidin-1-yl)-1-(4-cyclopropoxyphenyl)-1-hydroxypropan-2-yl)-1-(6-fluoronaphthalen-2-yl)pyrrolidine-3-carboxamide], the IC50 was 0.03 to 0.1 µM. For `O=C(N[C@H](CN1CCC1)[C@H](O)c1ccc(OC2CC2)cc1)[C@H]1CCN(c2ccc3cc(F)ccc3c2)C1` [Compound 159C, (S)-N-((1R,2R)-3-(azetidin-1-yl)-1-(4-cyclopropoxyphenyl)-1-hydroxypropan-2-yl)-1-(6-fluoronaphthalen-2-yl)pyrrolidine-3-carboxamide], the IC50 was in the range of 0.1 to 1 µM. Take `O=C(N[C@H](CN1CCCC1)[C@H](O)c1ccc(OC(F)F)cc1)[C@@H]1CCN(c2ccc(Cl)cc2)C1` [Compound 160, (R)-1-(4-chlorophenyl)-N-((1R,2R)-1-(4-(difluoromethoxy)phenyl)-1-hydroxy-3-(pyrrolidin-1-yl)propan-2-yl)pyrrolidine-3-carboxamide]: the IC50 lay within 0.03 to 0.1 µM. Then `O=C(N[C@H](CN1CCCC1)[C@H](O)c1ccc(OC(F)F)cc1)[C@@H]1CCN(c2ccccc2)C1` [Compound 161, (R)-N-((1R,2R)-1-(4-(difluoromethoxy)phenyl)-1-hydroxy-3-(pyrrolidin-1-yl)propan-2-yl)-1-phenylpyrrolidine-3-carboxamide], with 0.001 to 0.03 µM; and `O=C(N[C@H](CN1CCCC1)[C@H](O)c1ccc(OC2CC2)cc1)[C@@H]1CCN(c2ccc3cc(F)ccc3c2)C1` [Compound 162, (R)-N-((1R,2R)-1-(4-cyclopropoxyphenyl)-1-hydroxy-3-(pyrrolidin-1-yl)propan-2-yl)-1-(6-fluoronaphthalen-2-yl)pyrrolidine-3-carboxamide], with 0.001 to 0.03 µM.
